Reference: patent publication US7365096B2, “Methods for selectively inhibiting Janus tyrosine kinase 3 (Jak3)” (Board of Regents, The University of Texas System, priority 2002, dated 2008)
Entries after “also recorded” stand apart in the source; their conditions may differ.

Legend:
Stat5a/b = Stat5a/b DNA binding, EMSA in PHA activated T-cells; assay type: cell-based, human; conditions: increasing concentrations
Description: EMSA. Electrophoretic mobility shift assay (EMSA). Drug or vehicle control (DMSO) treated cells were pelleted by centrifugation (20,000×g for 1 min at 4° C.) and subsequently washed in five volumes of 10 mM HEPES, pH 7.9, 10 mM KCl, 1.5 mM MgCl2, 0.5 mM DTT, […], 5 μg/ml aprotinin, 1 μg/ml pepstatin A and 2 μg/ml leupeptin, centrifuged, then lysed in the same buffer supplemented with 1% NP-40 and incubated for 20 min on ice. The nuclei-containing pellet was resuspended in equal volumes of low salt buffer (10 mM HEPES, 25% glycerol, 1.5 mM MgCl2, 20 mM KCl, 0.5 mM DTT, 0.2 mM EDTA and protease inhibitors) and high salt buffer (low salt buffer containing 800 mM KCl). This fraction was then isolated by centrifugation at 4° C. for 10 min and supernatants saved as nuclear protein extract and stored at −70° C. Gel mobility shift assays were performed to detect Stat5a/b DNA binding activity using a Stat5 DNA binding sequence corresponding to the promoter of the β-casein gene (5′-[…]-3′) or an NF-kB binding element (5′-[…]-3′). Both probes were end-labeled with [^32P]dATP. […]
In FIG. 9A, it can be seen that NC1153 inhibits Jak3 driven transcription factor-Stat5a/b in PHA activated T-cells treated with increasing concentrations of NC1153 in a dose dependent manner as measured via EMSA analysis (upper panel). […]

Lck = Lck (Homo sapiens, UniProt P06239); assay: Tyrosine phosphorylation of activated Lck in YT cells; assay type: cell-based; set-up: Cellular extracts were immunoprecipitated with anti-Fyn or anti-Lck antibodies; endogenous in cells; host or cells: YT cells; conditions: 1-100 μM, 2 hours
Sequence of Lck (P06239 whole entry): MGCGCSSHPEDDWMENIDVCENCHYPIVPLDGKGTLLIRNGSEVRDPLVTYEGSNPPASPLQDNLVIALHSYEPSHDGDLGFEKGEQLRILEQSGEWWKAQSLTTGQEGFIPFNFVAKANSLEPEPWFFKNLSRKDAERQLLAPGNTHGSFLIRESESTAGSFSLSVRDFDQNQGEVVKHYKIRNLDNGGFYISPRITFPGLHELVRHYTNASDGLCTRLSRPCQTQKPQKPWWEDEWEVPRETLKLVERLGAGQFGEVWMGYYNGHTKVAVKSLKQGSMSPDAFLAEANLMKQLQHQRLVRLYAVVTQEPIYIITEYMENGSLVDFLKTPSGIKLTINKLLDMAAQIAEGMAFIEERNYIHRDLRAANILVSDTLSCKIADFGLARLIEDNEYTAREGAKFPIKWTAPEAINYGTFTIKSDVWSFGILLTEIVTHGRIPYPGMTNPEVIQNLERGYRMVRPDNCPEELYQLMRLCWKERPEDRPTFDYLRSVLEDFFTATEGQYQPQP

CN(C)CC1CCCCCCCCCC(CN(C)C)C1=O (mixture of isomers) [649641P (NC1153)]
Stat5a/b DNA binding (EMSA) (Stat5a/b): inhibits; also recorded: greatly impaired
Stat5a/b DNA binding (EMSA) (Stat5a/b; listed as NC1153): inhibits
activity (tyrosine phosphorylation) of Lck (Lck): no effect; also recorded: does not block the activity; also recorded: did not inhibit
